Results published in patent publication US20090093454A1, “Chemical Compounds” (priority 2005, published 2009).
Structures can show the parent of a compound that is named as a salt. Where two headings read alike, the source gives them in different places.

What was measured:
[1] = molecular target: T1, human CXCR4 (Homo sapiens, UniProt P61073); assay: Functional FLIPR assay (block of SDF-1 alpha calcium response); assay type: cell-based; conditions: HEK-293 cells with human CXCR4 and Gqi5 BacMam; antagonism of SDF-1 alpha [Ca2+]i change; read-out: Functional assay (pIC50) (converted)
T1 construct: expressed in transfected cells; host or cells: HEK-293 cells (stably expressing human macrophage scavenging receptor) transduced with human CXCR4 BacMam and Gqi5 BacMam baculovirus
T1 sequence (P61073 whole entry): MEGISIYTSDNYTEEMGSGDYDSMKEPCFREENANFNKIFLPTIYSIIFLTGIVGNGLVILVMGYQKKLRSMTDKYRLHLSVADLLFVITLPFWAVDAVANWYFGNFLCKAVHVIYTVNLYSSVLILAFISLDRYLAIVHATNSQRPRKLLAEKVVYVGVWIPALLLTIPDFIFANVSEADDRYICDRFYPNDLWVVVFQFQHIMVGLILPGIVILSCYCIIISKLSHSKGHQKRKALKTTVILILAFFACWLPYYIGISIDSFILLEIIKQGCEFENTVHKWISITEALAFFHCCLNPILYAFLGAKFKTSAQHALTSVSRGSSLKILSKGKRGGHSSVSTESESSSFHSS
Protocol: Human embryonic kidney (HEK-293) cells were maintained and harvested as described above. Cells were plated in 96-well, black clear bottom, poly-lysine coated plates at a concentration of 40,000 cells per well in a final volume of 100 ul containing human CXCR4BacMam (MOI=25) and Gqi5 BacMam (MOI=12.5). The cells were incubated at 37° C., 5% CO2, 95% humidity for 24 h to allow for protein expression.
After the required incubation time the cells were washed once with 50 ul of fresh serum-free DMEM/F12 media containing probenicid. 50 ul of dye solution was then added to the cells (Calcium Plus Assay Kit Dye; Molecular Devices) was dissolved in 200 ml of the above probenicid/BSA containing media and incubated for 1 h. Cell plates were transferred to a Fluorometric Imaging Plate Reader (FLIPR). Upon addition the effect of the compounds on the change in [Ca^2+]i was examined to determine if the compounds were agonists or antagonists (ability to block SDF-1 alpha activity) at the CXCR4 receptor. IC50 values are determined and pKb values are calculated using the Leff and Dougall equation: KB=IC50/((2+([agonist]/EC50̂b) ̂1/b−1) Where IC50 is that defined by the antagonist concentration-response curve [agonist] is the EC80 concentration of agonist used EC50 is that defined by the agonist concentration-response curve b is the slope of the agonist concentration-response curve.

[2] = Compound cytotoxicity in absence of virus (CellTiter-Glo); assay type: cell-based; conditions: human
Protocol: (§1) Compounds were profiled against two HIV-1 viruses, the M-tropic (CCR5 utilizing) Ba-L strain and the T-tropic (CXCR4 utilizing) IIIB strain. Both viruses were propagated in human peripheral blood lymphocytes. Compounds were tested for there ability to block infection of the HOS cell line (expressing hCXCR4/hCCR5/hCD4/pHIV-LTR-luciferase) by either HIV-1 Ba-L or HIV-1, IIIB. Compound cytotoxicity was also examined in the absence of virus addition.
(§2) HOS cells (expressing hCXCR4/hCCR5/hCD4/pHIV-LTR-luciferase) were harvested and diluted in Dulbeccos modified Eagles media supplemented with 2% FCS and non-essential amino acid to a concentration of 60,000 cells/ml. The cells were plated into 96-well plates (100 ul per well) and the plates were placed in a tissue culture incubator (37° C.; 5% CO2/95% air) for a period of 24 h.
Subsequently, 50 ul of the desired drug solution (4 times the final concentration) was added to each well and the plates were returned to the tissue culture incubator (37° C.; 5% CO2/95% air) for 1 h. Following this incubation 50 ul of diluted virus was added to each well (approximately 2 million RLU per well of virus). The plates were returned to the tissue culture incubator (37° C.; 5% CO2/95% air) and were incubated for a further 96 h.
Following this incubation the endpoint for the virally infected cultures was quantified following addition of Steady-Glo Luciferase assay system reagent (Promega, Madison, Wis.). Cell viability or non-infected cultures was measured using a CellTiter-Glo luminescent cell viability assay system (Promega, Madison, Wis.). All luminescent readouts are performed on a Topcount luminescence detector (Packard, Meridien, Conn.).
as §1, with “Ba-L was” for “Both viruses were”, “either peripheral blood lymphocytes or SupT1/CCR5+/CXCR4+ cells. IIIB was propagated in” for “human”, “their” for “there”
as §2, with “FCS” for “FCS and non-essential amino acid”, “120,000” for “60,000”, “(50 μl” for “(100 ul”, “(370°” for “(37°”
Subsequently, 50 μl of the desired drug solution (2 times the final concentration) was added to each well and the plates were returned to the tissue culture incubator (370° C.; 5% CO2/95% air) for 1 h. Following this incubation, 60 μl of diluted virus (4 times the final concentration) was added to 60 μl of 2× the final desired concentration of the compound and 100 μl of this compound/virus mix was added to each well (approximately 2 million RLU per well of virus). The plates were returned to the tissue culture incubator (370° C.; 5% CO2/95% air) and were incubated for a further 96 h.

[3] = HOS cells, no virus added, cell viability, read-out: Cytotox (pIC50) (converted)

Row | Compound | IC50 [1] [nM] | IC50 at 96 h [2, 3] [nM] | IC50 at 96 h [2] [nM]
1 | CN(C)CCCn1c(CN2CCC[C@@H]3CCc4cccnc4[C@@H]32)nc2ccccc21 [Example 11A, (3-{2-[(4aS,10bR)-3,4,4a,5,6,10b-Hexahydro-1,10-phenanthrolin-1(2H)-ylmethyl]-1H-benzimidazol-1-yl}propyl)dimethylamine] | 851 | > 100000 | 
2 | NCCCn1c(CN2CCC[C@H]3CCc4cccnc4[C@H]32)nc2ccccc21 (racemic) [Example 9, (cis)-3-[2-(3,4,4a,5,6,10b-Hexahydro-1,10-phenanthrolin-1(2H)-ylmethyl)-1H-benzimidazol-1-yl]-1-propanamine] | 19.5 | 28800 | 
3 | CN1CCN(c2cccc3nc(CN4CCC[C@H]5CCc6cccnc6[C@H]54)cn23)CC1 (racemic) [Example 15B, (cis)-1-{[5-(4-Methyl-1-piperazinyl)imidazo[1,2-a]pyridin-2-yl]methyl}-1,2,3,4,4a,5,6,10b-octahydro-1,10-phenanthroline] | 3.39 | > 100000 | 
4 | CN1CCCC(Cn2c(CN3CCC[C@H]4CCc5cccnc5[C@H]43)nc3ccccc32)C1 (mixture of isomers) [Example 13, (cis)-1-({1-[(1-Methyl-3-piperidinyl)methyl]-1H-benzimidazol-2-yl}methyl)-1,2,3,4,4a,5,6,10b-octahydro-1,10-phenanthroline] | 7.59 | > 100000 | 
5 | CN(C)CCCn1c(CN2CCC[C@H]3CCc4cccnc4[C@H]32)nc2ccccc21 [Example 11B, (3-{2-[(4aR,10bS)-3,4,4a,5,6,10b-Hexahydro-1,10-phenanthrolin-1(2H)-ylmethyl]-1H-benzimidazol-1-yl}propyl)dimethylamine] | 10.5 | > 100000 | 
6 | c1cnc2c(c1)CC[C@@H]1CCCN(Cc3nc4ccccc4[nH]3)[C@H]21 (racemic) [Example 7, (cis)-1-(1H-Benzimidazol-2-ylmethyl)-1,2,3,4,4a,5,6,10b-octahydro-1,10-phenanthroline] | 437 |  | > 100000
7 | CN1CCN(c2cccc3nc(CN4CCC[C@H]5CCc6cccnc6[C@H]54)[nH]c23)CC1 (racemic) [Example 33, (cis)-1-{[4-(4-Methyl-1-piperazinyl)-1H-benzimidazol-2-yl]methyl}-1,2,3,4,4a,5,6,10b-octahydro-1,10-phenanthroline] | 2.4 | 37200 | 
8 | NCCCn1c(CN2CCC[C@@H]3CCc4cccnc4[C@H]32)nc2ccccc21 (racemic) [Example 8, (trans)-3-[2-(3,4,4a,5,6,10b-Hexahydro-1,10-phenanthrolin-1(2H)-ylmethyl)-1H-benzimidazol-1-yl]-1-propanamine] | 126 | > 100000 | 
9 | c1cnc2c(c1)CC[C@@H]1CCCN(Cc3nc4ccccc4n3Cc3ccncc3)[C@H]21 (racemic) [Example 12, (cis)-1-{[1-(4-Pyridinylmethyl)-1H-benzimidazol-2-yl]methyl}-1,2,3,4,4a,5,6,10b-octahydro-1,10-phenanthroline] | 1050 | > 100000 | 
10 | CN1CCN(c2cccc3nc(CN4CCC[C@@H]5CCc6cccnc6[C@H]54)cn23)CC1 (racemic) [Example 15A, (trans)-1-{[5-(4-Methyl-1-piperazinyl)imidazo[1,2-a]pyridin-2-yl]methyl}-1,2,3,4,4a,5,6,10b-octahydro-1,10-phenanthroline] | 40.7 | > 100000 | 
11 | CN1CCN(c2cccc3nc(CN4CCC[C@@H]5CCc6cccnc6[C@@H]54)cn23)CC1 [Example 22, (4aS,10bR)-1-{[5-(4-Methyl-1-piperazinyl)imidazo[1,2-a]pyridin-2-yl]methyl}-1,2,3,4,4a,5,6,10b-octahydro-1,10-phenanthroline] | 31.6 | > 100000 | 
12 | c1cnc2c(c1)CC[C@H]1CCCN(Cc3nc4ccccc4[nH]3)[C@H]21 (racemic) [Example 6, (trans)-1-(1H-Benzimidazol-2-ylmethyl)-1,2,3,4,4a,5,6,10b-octahydro-1,10-phenanthroline] | 126 |  | 31600
13 | CN(C)CCCn1c(CN2CCC[C@H]3CCc4cccnc4[C@@H]32)nc2ccccc21 (stereo in doubt) [Example 10A, (3-{2-[(4aR,10bR)-3,4,4a,5,6,10b-Hexahydro-1,10-phenanthrolin-1(2H)-ylmethyl]-1H-benzimidazol-1-yl}propyl)dimethylamine] | 182 | > 100000 | 
14 | CN(C)CCCn1c(CN2CCC[C@@H]3CCc4cccnc4[C@H]32)nc2ccccc21 (stereo in doubt) [Example 10B, (3-{2-[(4aS,10bS)-3,4,4a,5,6,10b-Hexahydro-1,10-phenanthrolin-1(2H)-ylmethyl]-1H-benzimidazol-1-yl}propyl)dimethylamine] | 93.3 | > 100000 | 
15 | CN1CCN(c2cccc3[nH]c(CN4CCC[C@@H]5CCc6cccnc6[C@H]54)nc23)CC1 (racemic) [Example 32, (trans)-1-{[4-(4-Methyl-1-piperazinyl)-1H-benzimidazol-2-yl]methyl}-1,2,3,4,4a,5,6,10b-octahydro-1,10-phenanthroline trifluoroacetate] | 479 | > 10000 | 
16 | CN1CCN(c2cccc3nc(CN4CCC[C@H]5CCc6cccnc6[C@H]54)cn23)CC1 [Example 27, (4aR,10bS)-1-{[5-(4-Methyl-1-piperazinyl)imidazo[1,2-a]pyridin-2-yl]methyl}-1,2,3,4,4a,5,6,10b-octahydro-1,10-phenanthroline] | 1.26 | > 10000 | 
